By EC50 is commonly meant the concentration at which the effect is half-maximal.

This is an account of results in patent US20250136606A1, “MODULATORS OF TRPML, THEIR COMPOSITIONS AND METHODS OF USE” (Caraway Therapeutics, Inc., priority 2021, published 2025).

Common to all, as to assay type: cell-based
The target of one assay is TRPML1 (Homo sapiens, UniProt Q9GZU1). Kind of assay: Fluorescent TRPML1 assay (Fluo4-AM calcium fluorescence in doxycycline-induced HEK-293 Trex cells). The gist of the method: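 hTRPML1 (mutated for cell-surface expression) in HEK-293 Trex, dox 0.5 ug/mL o/n; Fluo4-AM 1 uM ~60 min, then ~60 min de-esterification, dark; modified Ringer's + 10 mM Ca. Cmpds 20 uM–6 nM final, half-log, n=3. Ex480/Em540; % activity vs ctrls; EC50 by nonlinear regression.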
Sequence of TRPML1 (Q9GZU1 whole entry L15A/L16A/L577A/L578A, form open): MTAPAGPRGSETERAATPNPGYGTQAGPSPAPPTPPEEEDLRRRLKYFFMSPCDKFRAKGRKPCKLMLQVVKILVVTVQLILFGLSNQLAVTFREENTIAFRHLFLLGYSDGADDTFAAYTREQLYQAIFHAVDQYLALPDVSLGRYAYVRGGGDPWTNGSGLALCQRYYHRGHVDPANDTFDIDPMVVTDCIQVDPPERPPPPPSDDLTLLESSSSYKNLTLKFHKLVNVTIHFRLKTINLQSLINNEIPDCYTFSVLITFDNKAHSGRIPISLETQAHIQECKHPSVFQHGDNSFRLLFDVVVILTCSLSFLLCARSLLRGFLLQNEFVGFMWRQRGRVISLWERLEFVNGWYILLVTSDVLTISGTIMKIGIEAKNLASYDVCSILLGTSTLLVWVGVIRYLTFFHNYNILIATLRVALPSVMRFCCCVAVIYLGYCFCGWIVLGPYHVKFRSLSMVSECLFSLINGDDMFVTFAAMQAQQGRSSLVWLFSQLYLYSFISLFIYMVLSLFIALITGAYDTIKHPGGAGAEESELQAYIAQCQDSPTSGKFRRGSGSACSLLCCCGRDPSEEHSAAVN

The target of a further assay is T1, TRPML2 (Homo sapiens, UniProt Q8IZK6).
T1 construct: expressed in transfected cells
T1 sequence (Q8IZK6 1-566): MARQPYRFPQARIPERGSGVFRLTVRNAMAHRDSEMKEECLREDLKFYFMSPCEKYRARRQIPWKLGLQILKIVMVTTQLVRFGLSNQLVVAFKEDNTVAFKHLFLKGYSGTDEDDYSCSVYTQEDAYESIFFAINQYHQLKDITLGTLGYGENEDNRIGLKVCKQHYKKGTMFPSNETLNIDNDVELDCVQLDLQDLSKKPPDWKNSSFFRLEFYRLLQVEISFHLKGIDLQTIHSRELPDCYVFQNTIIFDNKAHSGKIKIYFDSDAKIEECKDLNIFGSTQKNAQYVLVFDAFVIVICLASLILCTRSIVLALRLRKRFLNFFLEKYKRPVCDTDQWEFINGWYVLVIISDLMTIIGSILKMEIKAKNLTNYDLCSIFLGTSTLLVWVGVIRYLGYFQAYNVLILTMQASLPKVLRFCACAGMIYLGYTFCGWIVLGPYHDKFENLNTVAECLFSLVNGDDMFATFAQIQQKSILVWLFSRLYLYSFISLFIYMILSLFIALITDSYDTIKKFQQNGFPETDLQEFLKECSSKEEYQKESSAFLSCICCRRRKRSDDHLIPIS
Kind of assay: Fluorescent TRPML2 assay (performed as for TRPML1, substituting the TRPML2 subtype). The gist of the method:
(§1)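 HEK-293 Trex, dox-induced (0.5 ug/mL), mutated for surface expression. Fluo4-AM 1 micromolar load ~60 min, dark; buffer modified Ringer's, 10 mM Ca. Cpds 20 micromolar–6 nanomolar final, half-log, n=3. Read ex 480/em 540; % activity vs controls; EC50 nonlinear fit.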

Another assay addresses T2, TRPML3 (Homo sapiens, UniProt Q8TDD5).
T2 construct: expressed in transfected cells
T2 sequence (Q8TDD5 1-553): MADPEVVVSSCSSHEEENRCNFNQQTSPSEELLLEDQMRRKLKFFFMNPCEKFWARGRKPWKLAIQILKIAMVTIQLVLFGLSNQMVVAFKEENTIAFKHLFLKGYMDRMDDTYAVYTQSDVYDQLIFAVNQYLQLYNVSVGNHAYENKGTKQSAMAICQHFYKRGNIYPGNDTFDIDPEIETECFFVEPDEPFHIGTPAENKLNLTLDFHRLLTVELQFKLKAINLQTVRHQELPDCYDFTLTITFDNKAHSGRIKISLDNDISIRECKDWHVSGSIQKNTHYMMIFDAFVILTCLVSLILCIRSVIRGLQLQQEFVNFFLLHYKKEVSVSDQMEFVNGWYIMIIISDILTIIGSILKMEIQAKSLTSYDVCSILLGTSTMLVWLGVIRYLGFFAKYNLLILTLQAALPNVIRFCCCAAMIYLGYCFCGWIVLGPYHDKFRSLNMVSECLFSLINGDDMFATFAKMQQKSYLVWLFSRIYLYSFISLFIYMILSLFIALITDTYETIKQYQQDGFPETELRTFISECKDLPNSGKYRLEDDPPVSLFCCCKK
Kind of assay: Fluorescent TRPML3 assay (performed as for TRPML1, substituting the TRPML3 subtype). The gist of the method:
as §1

With `C[C@@H]1CN(c2ncnc3c2c(C(F)F)cn3C2CCCC(C#N)C2)[C@@H](C)CN1C(=O)OC(C)(C)C` (stereo partly drawn) [Compound 633, tert-butyl (2R,5S)-4-(7-(3-cyanocyclohexyl)-5-(difluoromethyl)-7H-pyrrolo[2,3-d]pyrimidin-4-yl)-2,5-dimethylpiperazine-1-carboxylate], the EC50 was 0.5 to 2 µM on TRPML1, > 2 µM at TRPML2 and 0.5 to 2 µM on TRPML3.

With `C[C@@H]1CN(c2ncnc3c2c(N2CCC2)cn3-c2cccc(F)c2)[C@@H](C)CN1C(=O)OC(C)(C)C` [Compound 635, tert-butyl (2R,5S)-4-(5-(azetidin-1-yl)-7-(3-fluorophenyl)-7H-pyrrolo[2,3-d]pyrimidin-4-yl)-2,5-dimethylpiperazine-1-carboxylate], the concentration for a half-maximal effect (EC50) at TRPML1 was < 0.1 µM; on TRPML2 it was 0.1 to 0.5 µM; on TRPML3, 0.1 to 0.5 µM.

For the compound `C[C@H]1CN(C(=O)OC(C)(C)C)CCN1c1ncnc2c1c(N1CCC1)cn2-c1cccc(F)c1` [Compound 636, tert-butyl (S)-4-(5-(azetidin-1-yl)-7-(3-fluorophenyl)-7H-pyrrolo[2,3-d]pyrimidin-4-yl)-3-methylpiperazine-1-carboxylate], the EC50 at TRPML1, at TRPML2 and at TRPML3 was < 0.1 µM throughout.

For the compound `C[C@H]1CN(C(=O)OC(C)(C)C)CCN1c1nccc2c1c(N1CCC1)cn2-c1cccc(F)c1` [Compound 637, tert-butyl (S)-4-(3-(azetidin-1-yl)-1-(3-fluorophenyl)-1H-pyrrolo[3,2-c]pyridin-4-yl)-3-methylpiperazine-1-carboxylate], the results for the concentration for a half-maximal effect (EC50) on TRPML1, at TRPML2 and on TRPML3 were < 0.1 µM, 0.1 to 0.5 µM and < 0.1 µM, respectively.

For `C[C@@H]1CN(c2nccc3c2c(N2CCC2)cn3-c2cccc(F)c2)[C@@H](C)CN1C(=O)OC(C)(C)C` [Compound 638], the half-maximal effective concentration (EC50) is < 0.1 µM at TRPML1, 0.1 to 0.5 µM on TRPML2 and < 0.1 µM on TRPML3.

Regarding `C[C@H]1CN(C(=O)OC(C)(C)C)CCN1c1ncnc2c1c(C1CCC1)cn2-c1cccc(F)c1` [Compound 641, tert-butyl (S)-4-(5-cyclobutyl-7-(3-fluorophenyl)-7H-pyrrolo[2,3-d]pyrimidin-4-yl)-3-methylpiperazine-1-carboxylate], the EC50 at TRPML1, at TRPML2 and at TRPML3 was < 0.1 µM throughout.

With `COc1ccnc(-n2cc(C3CC3)c3c(N4C[C@@H](C)N(C(=O)OC(C)(C)C)C[C@@H]4C)ncnc32)c1` [Compound 642, tert-butyl (2R,5S)-4-(5-cyclopropyl-7-(4-methoxypyridin-2-yl)-7H-pyrrolo[2,3-d]pyrimidin-4-yl)-2,5-dimethylpiperazine-1-carboxylate], the concentration for a half-maximal effect (EC50) on TRPML1 lay in the range of 0.1 to 0.5 µM; on TRPML2, 0.5 to 2 µM; on TRPML3, 0.1 to 0.5 µM.

As to `C[C@@H]1CN(c2ncnc3c2c(C2CC2)cn3-c2ccccn2)[C@@H](C)CN1C(=O)OC(C)(C)C` [Compound 643, tert-butyl (2R,5S)-4-(5-cyclopropyl-7-(pyridin-2-yl)-7H-pyrrolo[2,3-d]pyrimidin-4-yl)-2,5-dimethylpiperazine-1-carboxylate], the EC50 on TRPML1 was 0.1 to 0.5 µM; on TRPML2 it was 0.5 to 2 µM; on TRPML3, 0.1 to 0.5 µM.

For the compound `Cc1ccnc(-n2cc(C3CC3)c3c(N4C[C@@H](C)N(C(=O)OC(C)(C)C)C[C@@H]4C)ncnc32)c1` [Compound 644, tert-butyl (2R,5S)-4-(5-cyclopropyl-7-(4-methylpyridin-2-yl)-7H-pyrrolo[2,3-d]pyrimidin-4-yl)-2,5-dimethylpiperazine-1-carboxylate], the values for the concentration giving a half-maximal response (EC50) at TRPML1, on TRPML2 and at TRPML3 were 0.1 to 0.5 µM, 0.5 to 2 µM and 0.1 to 0.5 µM, respectively.

On to `C[C@@H]1CN(c2ncnc3c2c(C2CCC2)cn3-c2cccc(C(F)(F)F)c2)[C@@H](C)CN1C(=O)OC(C)(C)C` [Compound 645, tert-butyl (2R,5S)-4-(5-cyclobutyl-7-(3-(trifluoromethyl)phenyl)-7H-pyrrolo[2,3-d]pyrimidin-4-yl)-2,5-dimethylpiperazine-1-carboxylate], for which the EC50 at TRPML1, at TRPML2 and on TRPML3 was 0.1 to 0.5 µM each time.

On to `C[C@@H]1CN(c2ncnc3c2c(C2CCC2)cn3-c2cccc(F)c2)[C@@H](C)CN1C(=O)OC(C)(C)C` [Compound 646, tert-butyl (2R,5S)-4-(5-cyclobutyl-7-(3-fluorophenyl)-7H-pyrrolo[2,3-d]pyrimidin-4-yl)-2,5-dimethylpiperazine-1-carboxylate], for which the EC50 on TRPML1 is 0.5 to 2 µM; at TRPML2 it was > 2 µM; at TRPML3, 0.1 to 0.5 µM.

Take `C[C@@H]1CN(c2ncnc3c2c(C2CCC2)cn3-c2cccc(Cl)c2)[C@@H](C)CN1C(=O)OC(C)(C)C` [Compound 647, tert-butyl (2R,5S)-4-(7-(3-chlorophenyl)-5-cyclobutyl-7H-pyrrolo[2,3-d]pyrimidin-4-yl)-2,5-dimethylpiperazine-1-carboxylate]: the EC50 is 0.1 to 0.5 µM on TRPML1, 0.5 to 2 µM at TRPML2 and 0.5 to 2 µM on TRPML3.

As for `C[C@@H]1CN(c2ncnc3c2c(C2CCC2)cn3-c2cc(F)cc(F)c2)[C@@H](C)CN1C(=O)OC(C)(C)C` [Compound 648, tert-butyl (2R,5S)-4-(5-cyclobutyl-7-(3,5-difluorophenyl)-7H-pyrrolo[2,3-d]pyrimidin-4-yl)-2,5-dimethylpiperazine-1-carboxylate], the EC50 was in the range of 0.5 to 2 µM on TRPML1, 0.5 to 2 µM at TRPML2 and 0.1 to 0.5 µM on TRPML3.

Take `C[C@@H]1CN(c2ncnc3c2c(-c2ccccc2F)cn3-c2cc(C(F)(F)F)ccn2)[C@@H](C)CN1C(=O)OC(C)(C)C` [Compound 649, tert-butyl (2R,5S)-4-(5-(2-fluorophenyl)-7-(4-(trifluoromethyl)pyridin-2-yl)-7H-pyrrolo[2,3-d]pyrimidin-4-yl)-2,5-dimethylpiperazine-1-carboxylate]: the concentration for a half-maximal effect (EC50) on TRPML1, at TRPML2 and at TRPML3 was < 0.1 µM each time.

As for `C[C@@H]1CN(c2ncnc3c2c(-c2ccccc2F)cn3-c2cncc(C#N)c2)[C@@H](C)CN1C(=O)OC(C)(C)C` [Compound 650, tert-butyl (2R,5S)-4-(7-(5-cyanopyridin-3-yl)-5-(2-fluorophenyl)-7H-pyrrolo[2,3-d]pyrimidin-4-yl)-2,5-dimethylpiperazine-1-carboxylate], the concentration for a half-maximal effect (EC50) on TRPML1, on TRPML2 and at TRPML3 was < 0.1 µM in each case.

Turning to `C[C@H]1CN(C(=O)OC(C)(C)C)CCN1c1ncnc2c1c(-c1ccccc1F)cn2-c1cc(C(F)(F)F)ccn1` [Compound 651, tert-butyl (S)-4-(5-(2-fluorophenyl)-7-(4-(trifluoromethyl)pyridin-2-yl)-7H-pyrrolo[2,3-d]pyrimidin-4-yl)-3-methylpiperazine-1-carboxylate], the concentration giving a half-maximal response (EC50) at TRPML1, on TRPML2 and on TRPML3 was < 0.1 µM each time.

Take `C[C@@H]1CN(c2ncnc3c2c(-c2ccccc2F)cn3-c2cc(C(F)(F)F)ccn2)[C@@H](C)CN1C(=O)OC1(C)CC1` [Compound 652, 1-methylcyclopropyl (2R,5S)-4-(5-(2-fluorophenyl)-7-(4-(trifluoromethyl)pyridin-2-yl)-7H-pyrrolo[2,3-d]pyrimidin-4-yl)-2,5-dimethylpiperazine-1-carboxylate]: the EC50 at TRPML1 is < 0.1 µM; on TRPML2 it was 0.1 to 0.5 µM; on TRPML3, < 0.1 µM.

Consider `C[C@@H]1CN(c2ncnc3c2c(-c2ccccc2F)cn3-c2cc(F)ccn2)[C@@H](C)CN1C(=O)OC1(C)CC1` [Compound 653, 1-methylcyclopropyl (2R,5S)-4-(5-(2-fluorophenyl)-7-(4-fluoropyridin-2-yl)-7H-pyrrolo[2,3-d]pyrimidin-4-yl)-2,5-dimethylpiperazine-1-carboxylate], for which the EC50 at TRPML1, on TRPML2 and at TRPML3 was < 0.1 µM in each case.
